From patent US12281122B1, “PI3K inhibitors” (Cogent Biosciences, Inc., priority 2023, dated 2025)

What was measured:
[1] = system: T47D (PI3Kα-H1047R) cell line; test: HTRF phospho-AKT(S473) cell assay in T47D cells; assay type: cell-based, human
Experimental: (§1) Compounds in the present disclosure were tested in a cell based HTRF phospho-AKT(S473) (CisBio/Revvity) assay in human breast cancer cell lines as a measurement of PIK3CA activity through measuring AKT, a downstream effector. The activity of mutant PI3Kα-H1047R and PI3Kα-Wild Type was measured in the T47D (PI3Kα-H1047R) and SKBR3 (PI3Kα-Wild Type) cell lines, respectively. T47D cells were plated at 20,000 cells per well in 50 μL in RPMI medium supplemented with 10% FBS and 0.2 units/mL insulin, in 384 well plates. SKBR3 cells were plated at 25,000 cells per well in 50 μL in McCoy's 5A medium supplemented with 10% FBS, in 384 well plates. Cells were plated using a Combi Multidrop reagent dispenser (ThermoFisher), and placed in 5% CO2, 37° C. incubator overnight to adhere.
(§2) The next day, cells were treated with either compounds or vehicle (DMSO) in a 12-fold dose response curve of 1:3 dilutions, with 5 μM and 10 μM as the top concentrations for the T47D and SKBR3 cell lines, respectively. Compound treatment was facilitated via the D300e digital dispenser (Tecan), with a maximum DMSO concentration of 0.5%. Following compound addition, cell plates were incubated for 2 hours in 5% CO2, 37° C. incubator. The SKBR3 cells were stimulated and treated with 70 ng/ml PDGF-BB ligand (ThermoFisher) for the remaining 15 minutes of the incubation. Following compound incubation, compound and media was aspirated from the cells and 25 μL of supplemented lysis buffer was added per well, and incubated for 45 minutes at room temperature, shaking at 600 rpm. Next, 16 μL of cell lysate was added to a 384 well low volume ProxyPlate (Perkin Elmer/Revvity) mixed with 4 μL of HTRF antibodies (1:1 Eu Cryptate+d2 Cryptate). HTRF supplemented lysis buffer and antibody reagents were used from the phosphor-AKT(S473) HTRF assay kit (CisBio/Revvity), following manufacturers protocol recommendations. Plates were sealed and incubated at 4° C. overnight.
(§3) The following day, plates were centrifuged for 1 minute at 1000 rpm, and read on a PHERAstar plate reader. IC50 values were calculated using Spotfire software.

[2] = system: SKBR3 (PI3Kα-Wild Type) cell line; test: HTRF phospho-AKT(S473) cell assay in SKBR3 cells; assay type: cell-based, human
Experimental: as §1, §2, §3

[3] = Homo sapiens; T47D (PI3Kα-H1047R) cells, HTRF phospho-AKT(S473), 2 hours compound incubation
[4] = Homo sapiens, SK-BR-3; SKBR3 (PI3Kα-Wild Type) cells, HTRF phospho-AKT(S473), 2 hours compound incubation, PDGF-BB stimulated
[5] = Homo sapiens; HTRF phospho-AKT(S473), T47D (PI3Kα-H1047R) cells, 2 hours compound incubation
[6] = Homo sapiens, SK-BR-3; HTRF phospho-AKT(S473), SKBR3 (PI3Kα-Wild Type) cells, 2 hours compound incubation, PDGF-BB stimulated

Row | Compound | IC50 [1, 3] | IC50 [2, 4] | IC50 [1, 5] | IC50 [2, 6]
1 | Cc1cc([C@@H](C)Nc2ccc(Cl)nc2C(=O)NS(C)(=O)=O)c2nc(N3CC[C@H](c4ccn(C)n4)CC3(C)C)n(C)c(=O)c2c1 (relative stereo) [Compound 323, 6-chloro-3-(((R)-1-(2-((R*)-2,2-dimethyl-4-(1-methyl-1H-pyrazol-3-yl)piperidin-1-yl)-3,6-dimethyl-4-oxo-3,4-dihydroquinazolin-8-yl)ethyl)amino)-N-(methylsulfonyl) picolinamide] | 0.25 to 0.5 µM | ≥ 5 µM |  | 
2 | Cc1cc([C@@H](C)Nc2ccc(Cl)nc2C(=O)NS(C)(=O)=O)c2nc(N3CC[C@@H](c4ccn(C)n4)CC3(C)C)n(C)c(=O)c2c1 (relative stereo) [Compound 324, 6-chloro-3-(((R)-1-(2-((R*)-2,2-dimethyl-4-(1-methyl-1H-pyrazol-3-yl)piperidin-1-yl)-3,6-dimethyl-4-oxo-3,4-dihydroquinazolin-8-yl)ethyl)amino)-N-(methylsulfonyl) picolinamide] | < 0.25 µM | ≥ 5 µM |  | 
3 | Cc1cc([C@@H](C)Nc2ccc(Cl)nc2C(=O)NS(=O)(=O)[C@H]2C[C@@H](O)C2)c2nc(N3Cc4ccc(F)cc4C3)n(C)c(=O)c2c1 (relative stereo) [Compound 337, 6-chloro-3-(((R)-1-(2-(5-fluoroisoindolin-2-yl)-3,6-dimethyl-4-oxo-3,4-dihydroquinazolin-8-yl)ethyl)amino)-N-(((1S*,3S*)-3-hydroxycyclobutyl)sulfonyl)picolinamide] | < 0.25 µM | 1 to 5 µM |  | 
4 | CO[C@H]1CC[C@@H](n2ncc(-c3nc4c([C@@H](C)Nc5ccc(Cl)nc5C(=O)NS(C)(=O)=O)cc(C)cc4c(=O)n3C)c2C)CC1 (relative stereo) [Compound 380, 6-chloro-3-(((R)-1-(2-(1-((1S*,4S*)-4-methoxycyclohexyl)-5-methyl-1H-pyrazol-4-yl)-3,6-dimethyl-4-oxo-3,4-dihydroquinazolin-8-yl)ethyl)amino)-N-(methylsulfonyl) picolinamide] | < 0.25 µM | ≥ 5 µM |  | 
5 | Cc1cc([C@@H](C)Nc2ccc(Cl)nc2C(=O)NS(C)(=O)=O)c2nc(N3CCC[C@H](c4cnc(C)cn4)C3)n(C)c(=O)c2c1 (relative stereo) [Compound 585, 6-chloro-3-(((R)-1-(3,6-dimethyl-2-((R*)-3-(5-methylpyrazin-2-yl)piperidin-1-yl)-4-oxo-3,4-dihydroquinazolin-8-yl)ethyl)amino)-N-(methylsulfonyl) picolinamide] |  |  | 0.25 to 0.5 µM | ≥ 5 µM
6 | Cc1cc([C@@H](C)Nc2ccc(Cl)nc2C(=O)NS(C)(=O)=O)c2nc(N3CCC[C@@H](c4cnc(C)cn4)C3)n(C)c(=O)c2c1 (relative stereo) [Compound 586, 6-chloro-3-(((R)-1-(3,6-dimethyl-2-((R*)-3-(5-methylpyrazin-2-yl)piperidin-1-yl)-4-oxo-3,4-dihydroquinazolin-8-yl)ethyl)amino)-N-(methylsulfonyl) picolinamide] |  |  | 0.25 to 0.5 µM | ≥ 5 µM
7 | Cc1cc([C@@H](C)Nc2ccc(Cl)nc2C(=O)NS(C)(=O)=O)c2nc(N3CCC[C@@H](c4ncc(Cl)cn4)C3)n(C)c(=O)c2c1 (relative stereo) [Compound 588, 6-chloro-3-(((R)-1-(2-((R*)-3-(5-chloropyrimidin-2-yl)piperidin-1-yl)-3,6-dimethyl-4-oxo-3,4-dihydroquinazolin-8-yl)ethyl)amino)-N-(methylsulfonyl) picolinamide] |  |  | 1 to 5 µM | ≥ 5 µM
8 | Cc1cc([C@@H](C)Nc2ccc(Cl)nc2C(=O)NS(C)(=O)=O)c2nc(N3CCC[C@@H](c4cnc(C)c(C#N)c4)C3)n(C)c(=O)c2c1 (relative stereo) [Compound 614, 6-chloro-3-(((R)-1-(2-((R*)-3-(5-cyano-6-methylpyridin-3-yl)piperidin-1-yl)-3,6-dimethyl-4-oxo-3,4-dihydroquinazolin-8-yl)ethyl)amino)-N-(methylsulfonyl) picolinamide] |  |  | 0.5 to 1 µM | ≥ 5 µM
9 | Cc1cc([C@@H](C)Nc2ccc(Cl)nc2C(=O)NS(C)(=O)=O)c2nc(N3CCC[C@H](c4cnc(C)c(C#N)c4)C3)n(C)c(=O)c2c1 (relative stereo) [Compound 615, 6-chloro-3-(((R)-1-(2-((R*)-3-(5-cyano-6-methylpyridin-3-yl)piperidin-1-yl)-3,6-dimethyl-4-oxo-3,4-dihydroquinazolin-8-yl)ethyl)amino)-N-(methylsulfonyl) picolinamide] |  |  | 0.25 to 0.5 µM | 1 to 5 µM

The remaining lines, values ahead:

Row | IC50 [1, 3] | IC50 [2, 4] | IC50 [1, 5] | IC50 [2, 6] | Compound
10 | 0.25 to 0.5 µM | ≥ 5 µM |  |  | Cc1cc([C@@H](C)Nc2ccc(Cl)nc2C(=O)NS(C)(=O)=O)c2nc(N3C[C@@H]4C[C@H](c5cc[nH]n5)[C@H]3C4)n(C)c(=O)c2c1 (relative stereo) [Compound 347, 3-(((R)-1-(2-((1R,4R,6R*)-6-(1H-pyrazol-3-yl)-2-azabicyclo[2.2.1]heptan-2-yl)-3,6-dimethyl-4-oxo-3,4-dihydroquinazolin-8-yl)ethyl)amino)-6-chloro-N-(methylsulfonyl) picolinamide]
11 | < 0.25 µM | 1 to 5 µM |  |  | Cc1cc([C@@H](C)Nc2ccc(Cl)nc2C(=O)NS(C)(=O)=O)c2nc(N3C[C@H]4C[C@@H]3C[C@H]4c3ccn(C)n3)n(C)c(=O)c2c1 (relative stereo) [Compound 355, 6-chloro-3-(((R)-1-(3,6-dimethyl-2-((1R*,4S*,5R*)-5-(1-methyl-1H-pyrazol-3-yl)-2-azabicyclo[2.2.1]heptan-2-yl)-4-oxo-3,4-dihydroquinazolin-8-yl)ethyl)amino)-N-(methylsulfonyl) picolinamide]
12 | < 0.25 µM | 1 to 5 µM |  |  | Cc1cc([C@@H](C)Nc2ccc(Cl)nc2C(=O)NS(C)(=O)=O)c2nc(N3C[C@@H]4C[C@H]3C[C@@H]4c3ccn(C)n3)n(C)c(=O)c2c1 (relative stereo) [Compound 356, 6-chloro-3-(((R)-1-(3,6-dimethyl-2-((1R*,4S*,5R*)-5-(1-methyl-1H-pyrazol-3-yl)-2-azabicyclo[2.2.1]heptan-2-yl)-4-oxo-3,4-dihydroquinazolin-8-yl)ethyl)amino)-N-(methylsulfonyl) picolinamide]
13 |  |  | 0.25 to 0.5 µM | 1 to 5 µM | Cc1cc([C@@H](C)Nc2ccc(Cl)nc2C(=O)NS(C)(=O)=O)c2nc(N3C[C@H]4C[C@@H]3C[C@@H]4c3nn(C)cc3F)n(C)c(=O)c2c1 (relative stereo) [Compound 443, 6-chloro-3-(((R)-1-(2-((1R*,4S*,5S*)-5-(4-fluoro-1-methyl-1H-pyrazol-3-yl)-2-azabicyclo[2.2.1]heptan-2-yl)-3,6-dimethyl-4-oxo-3,4-dihydroquinazolin-8-yl)ethyl)amino)-N-(methylsulfonyl) picolinamide]
14 |  |  | 0.25 to 0.5 µM | ≥ 5 µM | Cc1cc([C@@H](C)Nc2ccc(Cl)nc2C(=O)NS(C)(=O)=O)c2nc(N3C[C@@H]4C[C@H]3C[C@@H]4c3nn(C)cc3F)n(C)c(=O)c2c1 (relative stereo) [Compound 444, 6-chloro-3-(((R)-1-(2-((1R*,4S*,5R*)-5-(4-fluoro-1-methyl-1H-pyrazol-3-yl)-2-azabicyclo[2.2.1]heptan-2-yl)-3,6-dimethyl-4-oxo-3,4-dihydroquinazolin-8-yl)ethyl)amino)-N-(methylsulfonyl) picolinamide]
15 |  |  | 0.25 to 0.5 µM | ≥ 5 µM | Cc1cc([C@@H](C)Nc2ccc(Cl)nc2C(=O)NS(C)(=O)=O)c2nc(N3CC[C@H](c4ccnc(C)n4)C3)n(C)c(=O)c2c1 (relative stereo) [Compound 599, 6-chloro-3-(((R)-1-(3,6-dimethyl-2-((R*)-3-(2-methylpyrimidin-4-yl)pyrrolidin-1-yl)-4-oxo-3,4-dihydroquinazolin-8-yl)ethyl)amino)-N-(methylsulfonyl) picolinamide]
16 |  |  | 0.25 to 0.5 µM | 1 to 5 µM | Cc1cc([C@@H](C)Nc2ccc(Cl)nc2C(=O)NS(C)(=O)=O)c2nc(N3CC[C@@H](c4ccnc(C)n4)C3)n(C)c(=O)c2c1 (relative stereo) [Compound 600, 6-chloro-3-(((R)-1-(3,6-dimethyl-2-((R*)-3-(2-methylpyrimidin-4-yl)pyrrolidin-1-yl)-4-oxo-3,4-dihydroquinazolin-8-yl)ethyl)amino)-N-(methylsulfonyl) picolinamide]
